Measured values taken from patent US12152038B2, “Vasopressin receptor antagonists and products and methods related thereto” (Neumora Therapeutics, Inc., priority 2017, dated 2024).
pIC50: −log10 of the molar value.

Molecular target: T1, human Arginine Vasopressin Receptor V2 (AVPR2) (Homo sapiens, UniProt P30518)
T1 construct: host or cells: 1321N1 (cAMPZen V2 assay ready frozen cells)
Assay: Vasopressin V2 receptor antagonist assay (TR-FRET cAMP, 1321N1 cells)
Assay type: cell-based
Procedure: The purpose of the assay was to determine the inhibitory effect of synthesized compounds on the Vasopressin receptor 2. The assay was performed in commercially available 1321N1 cells expressing the human Arginine Vasopressin Receptor V2 (AVPR2) (Perkin Elmer #ES-363-CF). Arginine Vasopressin (AVP) evokes an increase in intracellular cAMP in these cells which is measured in a TR-FRET assay using a Europium cAMP tracer and ULight labelled antibody reagents contained in a LANCE Ultra cAMP kit (Perkin Elmer #TRF0263). Increases in cAMP in the assay result in a reduction in TR-FRET as the cAMP produced by the stimulated cells competes with the Eu-cAMP tracer for binding sites on the ULight labelled antibody. Test compounds were assessed for their ability to affect the magnitude of the response to AVP, with antagonists showing a concentration-dependent decrease in the AVP-mediated reduction in TR-FRET signal.
cAMPZen V2 assay ready cells were thawed at 37° C. and resuspended directly from frozen in 9 ml growth medium consisting of DMEM supplemented with 10% v/v fetal bovine serum, 1× non-essential amino acids, and 1 mM sodium pyruvate. Cells were spun at 1000 rpm for 3 minutes and the supernatant was carefully removed and discarded. The pellet was resuspended in 5 ml stimulation buffer and the cell density determined using the Vi-Cell automated cell counter. The cell suspension was diluted to a 0.2×10^6/ml suspension ready for plating. To all wells of a white 384-well Optiplate (Perkin Elmer #6007299) 5 μL of cells in stimulation buffer were dispensed (1,000 cells per well). Stimulation buffer consisted of HBSS (+Ca/+Mg) supplemented with 5 mM HEPES, 0.1% BSA stabiliser and 0.5 mM IBMX.
At the start of each assay day the potency of AVP was assessed and an EC80 concentration determined for subsequent compound profiling. Assays were performed by first an addition of 2.5 μl of control or test compound at 4× final concentration in stimulation buffer followed by 2.5 μl of AVP at 4× final concentration in stimulation buffer. After a 1 hour reaction, detection reagents were added by first an addition of 5 μl EU-cAMP tracer, followed by 5 μl ULight-anti-cAMP both diluted as per the manufacturer's instructions. After a one hour incubation, plates were ready to be read (signals then remained stable for up to 24 hours). Changes in time resolved fluorescence were monitored with excitation via a laser (337 nm) measuring both 615 nm and 665 nm emission wavelengths. […] For compound profiling, test compounds were dispensed by the Labcyte Echo (10-point curve, 1:3 dilutions) in a target 0.1 μl volume then diluted 750-fold in stimulation buffer containing 3% DMSO prior to addition to the cells. At the end of the incubation period, 2.5 μl of AVP in stimulation buffer was added at the previously determined EC80 concentration.
In-plate controls for the assay included a Tolvaptan concentration-response curve as the reference V2 antagonist and an AVP concentration-response curve to confirm the reproducibility of the EC80 used for the compound challenge.

T1 sequence (P30518 whole entry): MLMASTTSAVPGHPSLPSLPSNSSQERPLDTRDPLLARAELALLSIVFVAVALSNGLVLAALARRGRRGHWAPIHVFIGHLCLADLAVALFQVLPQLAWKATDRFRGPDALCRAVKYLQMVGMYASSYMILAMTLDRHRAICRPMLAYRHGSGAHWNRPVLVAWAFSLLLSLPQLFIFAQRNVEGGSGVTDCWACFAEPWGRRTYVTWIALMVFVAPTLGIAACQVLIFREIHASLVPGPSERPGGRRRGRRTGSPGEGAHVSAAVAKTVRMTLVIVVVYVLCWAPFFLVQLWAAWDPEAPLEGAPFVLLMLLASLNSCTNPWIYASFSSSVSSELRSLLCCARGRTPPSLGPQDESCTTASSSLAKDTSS

Row | pIC50 | SMILES
1 | ≤ 6.00 | O=C(N1CC2(C1)CN(c1ccc(F)cn1)C2)N1CCC(F)(F)c2cc(Cl)ccc21 [17-1, (6-chloro-4,4-difluoro-3,4-dihydroquinolin-1(2H)-yl)(6-(5-fluoropyridin-2-yl)-2,6-diazaspiro[3.3]heptan-2-yl)methanone]
2 | 6.30 to 7.00 | COc1ccnc(N2CC3(CN(C(=O)N4c5ccc(Cl)cc5OCC4C)C3)C2)c1 (stereo not shown) [20-8]
3 | > 7.00 | Cc1ccnc(N2CC3(CN(C(=O)N4c5ccc(Cl)cc5OCC4C)C3)C2)c1 (stereo not shown) [20-11]
4 | ≤ 6.00 | O=C(N1CC2(C1)CN(c1ccc(F)cn1)C2)N1CCOc2cc(F)c(F)cc21 [9-6]
5 | ≤ 6.00 | O=C(N1CC2(C1)CN(c1cnccn1)C2)N1CCOc2cc(Cl)ccc21 [8-3]
6 | ≤ 6.00 | CC1COc2cc(Cl)c(F)cc2N1C(=O)N1CC2(C1)CN(c1cccnn1)C2 (stereo not shown) [19-4]
7 | ≤ 6.00 | O=C(N1CC2(C1)CN(c1cnccn1)C2)N1CCc2cc(Cl)ccc21 [8-14]
8 | ≤ 6.00 | O=C(N1CC2(C1)CN(c1cnccn1)C2)N1CCOCc2cc(Cl)ccc21 [8-13]
9 | > 7.00 | Cc1ccnc(N2CC3(CN(C(=O)N4c5ccc(Cl)cc5OCC4C)C3)C2)n1 (stereo not shown) [20-12]
10 | 6.30 to 7.00 | CC1COc2cc(F)ccc2N1C(=O)N1CC2(C1)CN(c1ccc(F)cn1)C2 (stereo not shown) [12-1, (7-fluoro-3-methyl-2,3-dihydro-4H-benzo[b][1,4]oxazin-4-yl)(6-(5-fluoropyridin-2-yl)-2,6-diazaspiro[3.3]heptan-2-yl)methanone]
11 | ≤ 6.00 | O=C(N1CC2(C1)CN(c1ccccn1)C2)N1CCOc2cc(Cl)ccc21 [8-2]
12 | 6.30 to 7.00 | COc1ccnc(N2CC3(CN(C(=O)N4c5ccc(Cl)cc5OCC4C)C3)C2)n1 (stereo not shown) [20-9]

Second part, the compound before the results:

Row | SMILES | pIC50
13 | CC1COc2cc(Cl)ccc2N1C(=O)N1CC2(C1)CN(c1cccnn1)C2 (single isomer, unassigned) [9-1-A] | ≤ 6.00
14 | CC1COc2cc(F)ccc2N1C(=O)N1CC2(C1)CN(c1ncc(F)cn1)C2 (single isomer, unassigned) [18-4-B] | ≤ 6.00
15 | Cc1cncc(N2CC3(CN(C(=O)N4c5ccc(F)cc5OCC4C)C3)C2)n1 (single isomer, unassigned) [20-2-A] | ≤ 6.00
16 | CC1COc2cc(Cl)ccc2N1C(=O)N1CC2(C1)CN(c1noc3cccnc13)C2 (single isomer, unassigned) [18-3-B] | 6.30 to 7.00
17 | O=C(N1CC2(C1)CN(c1ncc(F)cn1)C2)N1CCOc2cc(Cl)ccc21 [4-2] | ≤ 6.00
18 | O=C(N1CC2(C1)CN(c1cnccn1)C2)N1CCC(O)c2cc(Cl)ccc21 (single isomer, unassigned) [13-3-A] | ≤ 6.00
19 | Cc1cnc(N2CC3(CN(C(=O)N4c5ccc(Cl)cc5OCC4C)C3)C2)cn1 (single isomer, unassigned) [20-5-B] | > 7.00
20 | O=C(N1CC2(C1)CN(c1cccc(F)n1)C2)N1CCc2cc(Cl)ccc21 [1-78] | ≤ 6.00
21 | CC1COc2cc(Cl)ccc2N1C(=O)N1CC2(C1)CN(c1ncccn1)C2 (single isomer, unassigned) [1-83-B, (7-chloro-3-methyl-2,3-dihydro-4H-benzo[b][1,4]oxazin-4-yl)(6-(pyrimidin-2-yl)-2,6-diazaspiro[3.3]heptan-2-yl)methanone] | ≤ 6.00
22 | CC1COc2cc(Cl)c(F)cc2N1C(=O)N1CC2(C1)CN(c1ncccn1)C2 (single isomer, unassigned) [19-2-B] | 6.30 to 7.00
23 | CC1COc2cc(Cl)ccc2N1C(=O)N1CC2(C1)CN(c1cc(C#N)ccn1)C2 (single isomer, unassigned) [20-6-B] | > 7.00
24 | Cc1ccnc(N2CC3(CN(C(=O)N4CCOc5cc(Cl)ccc54)C3)C2)c1 [1-14] | ≤ 6.00
25 | CC1CN(C(=O)N2CC3(C2)CN(c2ccc(F)cn2)C3)c2ccc(F)cc2O1 (single isomer, unassigned) [9-4-B] | ≤ 6.00
